# Legend:
# TCR3 = assay: Single SABR-II co-incubation, NFAT-GFP Jurkat; format: cell-based, mouse; settings: TCR 3, Fig 5C
# Excerpt: Given the predominance of HIP-reactive TCRs, we hypothesized that there may be other TCRs that respond to HIPs that were not encoded in our initial library configuration. While the initial I-Ag7 SABR-II library consisted of a number of HIPs, HIP formation is thought to be more widespread in pancreatic β-cells[52],[70]. Therefore, we sought to construct a defined, HIP-focused library to probe whether there were any undiscovered HIP-reactive TCRs that could be recognized by the clonally expanded TCR in our dataset. To test this, we utilized a published proteomic dataset, which predicted that several proteins that were highly expressed in secretory granules of β-cells may contribute to HIP formation. Using their predictions, we built a theoretical HIP library, in which all possible ‘left’ halves of the insulin C chain derived from natural cleavage products were fused to ‘right’ halves derived from secretory granule proteins (Fig. 5a). This 2,561-epitope library (12–25 amino acids per epitope) consisted of only HIPs and a small number of positive control epitopes (Supplementary Table 5). We screened the top three clonally expanded TCRs (TCR1, TCR2 and TCR3) against this library, as these TCRs had not been de-convoluted using the original library. […] To confirm that the HIP itself was important for the cognate interaction, we cloned single 14-mer epitopes into SABR-IIs consisting of seven amino acids of the left portion of the HIP and seven amino acids of the right portion of the HIP. In this way, no nine amino acids from either peptide sequence alone could occupy the binding pocket of I-Ag7, ensuring that TCR reactivity spanned the HIP junction. […] Of note, in all the epitopes that were tested, the ‘left’ half derived from insulin C was conserved, whereas the ‘right’ halves were derived from several other proteins (Fig. 5d). […] Moreover, the promiscuous binding of TCR3 to HIPs corroborates evidence from other NOD mouse-derived TCRs reacting to multiple HIPs[72].
# (§1) For SABR library screens, 3 × 10^6 NFAT–GFP Jurkat cells expressing the SABR library were labeled with CellTrace Violet (BioLegend) according to the manufacturer’s protocol before incubation with 3 × 10^6 Jurkat cells expressing the TCR of interest. These mixtures were incubated in a six-well plate for 16–20 h. Cells were stained with anti-CD69-APC-Cy7 where indicated (BioLegend) and the top 1–2% of GFP^+CD69^+ cells were sorted for genomic DNA extraction, indexing and sequencing (see below). Multiplexed assays were scaled on a per-TCR basis (for example 3 × 10^6 for each of three TCRs against 9 × 10^6 library cells). For single SABR assays, unless otherwise defined, 5 × 10^5 SABR expressing NFAT–GFP Jurkat cells (or 5KC cells) were labeled with CellTrace Violet (BioLegend) according to the manufacturer’s protocol before incubation with 5 × 10^5 TCR-expressing Jurkat cells (or 5KC cells) in a round-bottom 96-well plate for 16–20 h. Cells were stained with anti-CD69-APC-Cy7 when indicated and acquired on the Attune NxT flow cytometer (Thermo Fisher Scientific). All flow analysis was performed using FlowJo (BD). For Daudi cell co-culture, 1 × 10^6 Jurkat cells expressing the TCR of interest were incubated with 1 × 10^6 Daudi cells expressing a SABR of interest for 3 days. On day 3, cells were labeled with anti-RT1B-PE and anti-Fas-APC-Cy7 before being acquired on the Attune NxT flow cytometer.
# TCR4 = assay: Single SABR-II co-incubation, NFAT-GFP Jurkat; format: cell-based, mouse; settings: TCR 4, Fig 5C
# Excerpt: (§2) We performed systematic screening of the cloned TCRs against the I-Ag7 SABR-II library. Several TCRs along with a positive control (such as BDC2.5 or 4-8Ins) were screened individually against the library for each sort (Extended Data Fig. 6a and Supplementary Table 4). High- and low-confidence ES zones for each screened TCR were defined by the ES values of the control TCR’s cognate epitopes. For all putative cognate epitopes, single SABR-IIs were constructed, expressed in NFAT–GFP Jurkat cells and used for co-incubation with the corresponding TCRs. Co-incubation assays that yielded a GFP signal higher than that obtained in assays with no TCR were determined to be positive and the epitopes deemed true cognate ligands (Extended Data Fig. 6b,c). Using this strategy, we obtained epitopes in the high-confidence zone for eight TCRs (Fig. 3a and Extended Data Fig. 6b,d). Among numerous altered peptide ligands (APLs), these TCRs recognized the physiological InsC-ChgA HIP ([…] and analogs, recognized by TCR5, TCR6B, TCR9 and TCR34), InsC-Iapp HIP ([…] and analogs, recognized by TCR4 and TCR15) and InsB9:23 ([…] and analogs recognized by TCR24 and TCR37). These cognate high-confidence hits were validated using single SABR-II co-incubation assays (Fig. 3b and Extended Data Fig. 7a). Further validations using in vitro mouse interleukin-2 (mIL-2) secretion by TCR-expressing 5KC reporter cells[13] or CD25 expression by TCR-expressing splenic CD4^+ T cells upon stimulation with the cognate epitope were performed (Extended Data Fig. 7b,c). Furthermore, low-confidence hits were called for ten TCRs and tested in co-incubation assays.
# as §1
# Jurkat cells, No TCR = assay: Single SABR-II co-incubation, background without TCR; format: cell-based, human; settings: No TCR
# Excerpt: as §2, §1
# TCR5 = assay: Single SABR-II co-incubation, NFAT-GFP Jurkat; format: cell-based, mouse; settings: TCR 5, Ext. Data Fig. 6C, 18-20 hr
# Excerpt: as §2, §1
# BDC2.5 TCR = assay: I-Ag7 SABR-II library screen, enrichment score; format: cell-based, mouse; settings: I-Ag7 library
# Excerpt: We then asked whether SABR-IIs could be used to present a library of epitopes for CD4^+ T cell antigen discovery. To that end, we constructed a SABR-II library to present epitopes derived from pancreatic islets in I-Ag7 by curating a list of 4,075 published epitopes from the Immune Epitope Database (iedb.org)[50] and a study by Wan et al.[51] (Supplementary Table 1). Of note, this defined library consisted of unmodified epitopes from endogenous proteins, synthetic mimotopes, deamidated epitopes and hybrid insulin peptides (HIPs) that arise from post-translational fusion and are not genetically encoded in vivo[52],[53]. The epitope library was inserted into the I-Ag7 SABR-II backbone through pooled oligonucleotide synthesis, amplification and ligation-free cloning (Extended Data Fig. 3a). The I-Ag7 SABR-II-library was then expressed in NFAT–GFP Jurkat cells. We confirmed that after sequencing, the library accounted for a mean of 708 reads per epitope (Extended Data Fig. 3b). As a proof of concept, we performed co-incubation assays with Jurkat cells expressing the BDC2.5 TCR and sorted the top 1–2% of GFP^+CD69^+ cells at a rate of ~20 min per replicate with three replicates per TCR. We extracted the genomic DNA from sorted cells, amplified the SABR portion of the integrated proviruses and subjected the amplicons to Illumina sequencing (Extended Data Fig. 3c,d). The 1–2% sort gate represents >50-fold enrichment of cognate epitopes with minimal loss of signal (Extended Data Fig. 3e–h). Sequence reads were aligned to the I-Ag7 SABR-II backbone and the corresponding epitopes were scored based on their read counts. For each TCR under investigation, an enrichment score (ES) was determined for all the epitopes in a library. In each experiment, three replicates of a sort with TCR-expressing Jurkat cells were performed and reads were counted post-sequencing. In addition, three replicates of the unsorted library were also sequenced. A linear regression model was built using the unsorted library counts and used to determine the expected abundance of each epitope in the library. The ES was calculated based on the difference between the measured and the expected abundance of each epitope on a per-TCR basis (Fig. 1e). Based on ES values, two quantitative thresholds were used to determine putative cognate epitopes of a given TCR. A high-confidence zone containing clear outliers with a high ES and a low-confidence zone containing weak outliers with a moderately high ES were determined (Fig. 1e). This two-tiered strategy was used to call putative hits from screens. All the top-scoring epitopes for the BDC2.5 TCR were known BDC2.5 ligands containing the WXRM(D/E) motif (Fig. 1f,g, enriched ligands in red), a well-characterized trait of the BDC2.5 TCR[43],[54]–[56]. Across several independent experiments there was limited variation in ES values for the same TCRs and several epitopes fell into high- or low-confidence zones consistently (Extended Data Fig. 4a). Using a different TCR that was isolated from NOD mice, 4-8Ins[57], which recognized the InsB9:23 epitope ([…]), we observed a similar pattern of ES for cognate epitopes (Extended Data Fig. 4b).
# For SABR library screens, 3 × 10^6 NFAT–GFP Jurkat cells expressing the SABR library were labeled with CellTrace Violet (BioLegend) according to the manufacturer’s protocol before incubation with 3 × 10^6 Jurkat cells expressing the TCR of interest. These mixtures were incubated in a six-well plate for 16–20 h. Cells were stained with anti-CD69-APC-Cy7 where indicated (BioLegend) and the top 1–2% of GFP^+CD69^+ cells were sorted for genomic DNA extraction, indexing and sequencing (see below). Multiplexed assays were scaled on a per-TCR basis (for example 3 × 10^6 for each of three TCRs against 9 × 10^6 library cells). […]
# [1] = Ext. Data Fig. 6C, 18-20 hr, technical replicate 1
# [2] = Ext. Data Fig. 6C, 18-20 hr, technical replicate 2
# [3] = EXPT1 of 8 biological experiments
sequence,measurement,setting,value
"EQLELGGHIEDSGE [14-mer hybrid insulin peptide spanning the fusion junction, TCR3 hit]",%GFP+CD69+ cells of SABR-NFAT-GFP-Jurkat cells,TCR3; technical replicate 1,29.1%
same,%GFP+CD69+ cells of SABR-NFAT-GFP-Jurkat cells,TCR3; technical replicate 2,28.9%
same,%GFP+CD69+ cells of SABR-NFAT-GFP-Jurkat cells,TCR4; technical replicate 1,13.2%
same,%GFP+CD69+ cells of SABR-NFAT-GFP-Jurkat cells,TCR4; technical replicate 2,14.3%
same,%GFP+CD69+ cells of SABR-NFAT-GFP-Jurkat cells,"Jurkat cells, No TCR; Fig 5C, technical replicate 1",14.1%
same,%GFP+CD69+ cells of SABR-NFAT-GFP-Jurkat cells,"Jurkat cells, No TCR; Fig 5C, technical replicate 2",13.9%
"EQLELGGKADEFPD [14-mer hybrid insulin peptide spanning the fusion junction, TCR3 hit]",%GFP+CD69+ cells of SABR-NFAT-GFP-Jurkat cells,TCR3; technical replicate 1,38.6%
same,%GFP+CD69+ cells of SABR-NFAT-GFP-Jurkat cells,TCR3; technical replicate 2,37.2%
same,%GFP+CD69+ cells of SABR-NFAT-GFP-Jurkat cells,TCR4; technical replicate 1,11.4%
same,%GFP+CD69+ cells of SABR-NFAT-GFP-Jurkat cells,TCR4; technical replicate 2,11.5%
same,%GFP+CD69+ cells of SABR-NFAT-GFP-Jurkat cells,"Jurkat cells, No TCR; Fig 5C, technical replicate 1",11.2%
same,%GFP+CD69+ cells of SABR-NFAT-GFP-Jurkat cells,"Jurkat cells, No TCR; Fig 5C, technical replicate 2",12.4%
"QLELGGSKDSDKGQ [14-mer hybrid insulin peptide spanning the fusion junction, TCR3 hit]",%GFP+CD69+ cells of SABR-NFAT-GFP-Jurkat cells,TCR3; technical replicate 1,10.5%
same,%GFP+CD69+ cells of SABR-NFAT-GFP-Jurkat cells,TCR3; technical replicate 2,9.28%
same,%GFP+CD69+ cells of SABR-NFAT-GFP-Jurkat cells,TCR4; technical replicate 1,9.32%
same,%GFP+CD69+ cells of SABR-NFAT-GFP-Jurkat cells,TCR4; technical replicate 2,9.4%
same,%GFP+CD69+ cells of SABR-NFAT-GFP-Jurkat cells,"Jurkat cells, No TCR; Fig 5C, technical replicate 1",9.03%
same,%GFP+CD69+ cells of SABR-NFAT-GFP-Jurkat cells,"Jurkat cells, No TCR; Fig 5C, technical replicate 2",10.7%
RRAGDLQTLWSRMDARR,%GFP+CD69+ cells of SABR-NFAT-GFP-Jurkat cells,TCR5; technical replicate 1,22.4%
same,%GFP+CD69+ cells of SABR-NFAT-GFP-Jurkat cells,TCR5; technical replicate 2,18.8%
same,%GFP+CD69+ cells of SABR-NFAT-GFP-Jurkat cells,"Jurkat cells, No TCR; [1]",0.37%
same,%GFP+CD69+ cells of SABR-NFAT-GFP-Jurkat cells,"Jurkat cells, No TCR; [2]",0.41%
same,Enrichment score,BDC2.5 TCR; [3],0.002517
same,Enrichment score,BDC2.5 TCR; EXPT2 of 8,0.001322
same,Enrichment score,BDC2.5 TCR; EXPT3 of 8,0.002797
same,Enrichment score,BDC2.5 TCR; EXPT4 of 8,0.002419
same,Enrichment score,BDC2.5 TCR; EXPT5 of 8,0.002428
same,Enrichment score,BDC2.5 TCR; EXPT6 of 8,0.002187
same,Enrichment score,BDC2.5 TCR; EXPT7 of 8,0.002605
same,Enrichment score,BDC2.5 TCR; EXPT8 of 8,0.002542
SRLGLWSRMDQLAKELTAE,%GFP+CD69+ cells of SABR-NFAT-GFP-Jurkat cells,TCR5; technical replicate 1,73.5%
same,%GFP+CD69+ cells of SABR-NFAT-GFP-Jurkat cells,TCR5; technical replicate 2,71.6%
same,%GFP+CD69+ cells of SABR-NFAT-GFP-Jurkat cells,"Jurkat cells, No TCR; [1]",1.65%
same,%GFP+CD69+ cells of SABR-NFAT-GFP-Jurkat cells,"Jurkat cells, No TCR; [2]",1.6%
same,Enrichment score,BDC2.5 TCR; [3],0.002042
same,Enrichment score,BDC2.5 TCR; EXPT2 of 8,0.001129
same,Enrichment score,BDC2.5 TCR; EXPT3 of 8,0.002688
same,Enrichment score,BDC2.5 TCR; EXPT4 of 8,0.002123
same,Enrichment score,BDC2.5 TCR; EXPT5 of 8,0.003298
same,Enrichment score,BDC2.5 TCR; EXPT6 of 8,0.002741
same,Enrichment score,BDC2.5 TCR; EXPT7 of 8,0.00232
same,Enrichment score,BDC2.5 TCR; EXPT8 of 8,0.003121
SRLGLWVRMEQLAKELTAE,%GFP+CD69+ cells of SABR-NFAT-GFP-Jurkat cells,TCR5; technical replicate 1,21.9%
same,%GFP+CD69+ cells of SABR-NFAT-GFP-Jurkat cells,TCR5; technical replicate 2,19.4%
same,%GFP+CD69+ cells of SABR-NFAT-GFP-Jurkat cells,"Jurkat cells, No TCR; [1]",1.58%
same,%GFP+CD69+ cells of SABR-NFAT-GFP-Jurkat cells,"Jurkat cells, No TCR; [2]",1.53%
same,Enrichment score,BDC2.5 TCR; [3],0.001795
same,Enrichment score,BDC2.5 TCR; EXPT2 of 8,0.001184
same,Enrichment score,BDC2.5 TCR; EXPT3 of 8,0.002703
same,Enrichment score,BDC2.5 TCR; EXPT4 of 8,0.001978
same,Enrichment score,BDC2.5 TCR; EXPT5 of 8,0.002454
same,Enrichment score,BDC2.5 TCR; EXPT6 of 8,0.002768
same,Enrichment score,BDC2.5 TCR; EXPT7 of 8,0.002526
same,Enrichment score,BDC2.5 TCR; EXPT8 of 8,0.002128
